Measurements: patent US6943162B2, “Piperazinyltriazines as estrogen receptor modulators” (SmithKline Beecham Corporation, priority 2001, dated 2005)
Read-outs that look alike come from different tables or passages of the source. Each block holds one molecule with its values, some of them ahead of it.

Experiments:
ERα = biological target: T1, ERα (Homo sapiens, UniProt P03372); experiment: Estrogen receptor competition binding assay (SPA, [3H]Estradiol), ERα
T1 construct: GST (N); made in house; host or cells: E. coli BL21(DE3)pLysS
T1 sequence (P03372 311-547 limits assumed): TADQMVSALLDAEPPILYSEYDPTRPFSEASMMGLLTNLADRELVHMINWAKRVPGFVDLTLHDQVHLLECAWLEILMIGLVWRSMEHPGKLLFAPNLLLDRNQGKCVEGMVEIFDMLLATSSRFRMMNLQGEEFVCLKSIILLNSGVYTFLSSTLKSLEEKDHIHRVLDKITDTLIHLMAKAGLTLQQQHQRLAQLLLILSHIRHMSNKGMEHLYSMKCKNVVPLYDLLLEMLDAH
Experimental: (§1) The ligand binding domain of both ERα and ERβ were subcloned into pGEX-2T vector which had been modified to contain KpnI and BamHI restriction sites in the multiple cloning region. GST-hERα and GST-hERβ proteins were made by transforming BL21(DE3)pLYS S competent cells with the appropriate expression plasmid. […] The cells were collected by centrifugation and resuspended in lysis buffer (50 mM Tris pH 7.9; 250 mM KCl; 1% Triton X-100; 10 mM DTT; 1 mM PMSF). The lysate was then placed on dry ice until completely frozen. […] The supernatant was retained and glycerol was added to a final concentration of 10%. The protein content of the supernatant was quantitated using the BioRad Protein Assay Reagent The protein was then stored at −80° C. until used in the binding assay.
(§2) Polylysine coated Yttrium Silicate SPA beads (Amersham #RPNQ 0010) are resuspended in assay buffer [10 mM potassium phosphate buffer pH 7.0 containing 2 mM EDTA, 50 mM NaCl, 1 mM DTT, 2 mM CHAPS, 10% glycerol] to a concentration of 1 g/60 ml. […] [2, 4, 6, 7, 16, 17-3H(N)]-Estradiol is added as a 30 ul aliquot to give a final assay concentration of 1 nM. […] The plates are shaken vigorously for two hours then counted on a Packard TopCount using the protocol for counting tritium yttrium silicate SPA beads. Data analysis was done by standard methods. % Bound was calculated for each concentration of each test compound using the equation % Bound=100*((Test−NS)/(T−NS)). % Bound was plotted vs concentration and curve fitting was accomplished using non-linear regression.

ERβ = biological target: T2, ERβ (Homo sapiens, UniProt Q92731); experiment: Estrogen receptor competition binding assay (SPA, [3H]Estradiol), ERβ
T2 construct: GST (N); made in house; host or cells: E. coli BL21(DE3)pLysS
Experimental: as §1, §2

[1] = competition binding assay, GST-hERα ligand binding domain, 1 nM [3H]Estradiol, (n) = number of determinations, read-out: Avg. ER α pKi (n) (converted)

T2 sequence (Q92731 264-498 limits assumed): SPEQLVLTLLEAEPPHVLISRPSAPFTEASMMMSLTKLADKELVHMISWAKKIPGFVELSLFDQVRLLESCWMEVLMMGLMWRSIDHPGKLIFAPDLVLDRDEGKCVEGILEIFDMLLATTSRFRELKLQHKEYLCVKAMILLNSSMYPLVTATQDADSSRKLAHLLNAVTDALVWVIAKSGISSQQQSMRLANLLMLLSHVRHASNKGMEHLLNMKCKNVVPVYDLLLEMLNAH

Structure (SMILES): CN(CCCc1ccc(Cl)cc1)c1nc(NCCc2ccc(O)cc2)nc(N2CCNCC2)n1 [Example 1, 4-(2-{[4-[[3-(4-chlorophenyl)propyl](methyl)amino]-6-(1-piperazinyl)-1,3,5-triazin-2-yl]amino}ethyl)phenol]
- Ki (ERα; [1]): 339 nM
- Ki (ERβ): 10.5 nM

Structure (SMILES): COc1cccc(C(=O)N2CCN(c3nc(NCCc4ccc(O)cc4)nc(N(C)CCCc4ccc(Cl)cc4)n3)CC2)c1 [Example 3, 4-[2-({4-[[3-(4-chlorophenyl)propyl](methyl)amino]-6-[4-(3-methoxybenzoyl)-1-piperazinyl]-1,3,5-triazin-2-yl}amino)ethyl]phenol]
- Ki (ERα; [1]): 1780 nM
- Ki (ERβ): 95.5 nM

Structure (SMILES): CN(CCCc1ccc(Cl)cc1)c1nc(NCCc2ccc(O)cc2)nc(N2CCN(C(=O)c3ccccn3)CC2)n1 [Example 4, 4-[2-({4-[[3-(4-chlorophenyl)propyl](methyl)amino]-6-[4-(2-pyridinylcarbonyl)-1-piperazinyl]-1,3,5-triazin-2-yl}amino)ethyl]phenol]
- Ki (ERα; [1]): 4370 nM
- Ki (ERβ): 155 nM

Structure (SMILES): CN(CCCc1ccc(Cl)cc1)c1nc(NCCc2ccc(O)cc2)nc(N2CCN(Cc3ccccn3)CC2)n1 [Example 5, 4-[2-({4-[[3-(4-chlorophenyl)propyl](methyl)amino]-6-[4-(2-pyridinylmethyl)-1-piperazinyl]-1,3,5-triazin-2-yl}amino)ethyl]phenol]
- Ki (ERβ): 38 nM

Structure (SMILES): CN(CCCc1ccc(Cl)cc1)c1nc(NCCc2ccc(O)cc2)nc(N2CCN(Cc3cccnc3)CC2)n1 [Example 6, 4-[2-({4-[[3-(4-chlorophenyl)propyl](methyl)amino]-6-[4-(3-pyridinylmethyl)-1-piperazinyl]-1,3,5-triazin-2-yl}amino)ethyl]phenol]
- Ki (ERβ): 31.6 nM

Structure (SMILES): Cc1nc(CN2CCN(c3nc(NCCc4ccc(O)cc4)nc(N(C)CCCc4ccc(Cl)cc4)n3)CC2)cs1 [Example 7, 4-{2-[(4-[[3-(4-chlorophenyl)propyl](methyl)amino]-6-{4-[(2-methyl-1,3-thiazol-4-yl)methyl]-1-piperazinyl}-1,3,5-triazin-2-yl)amino]ethyl}phenol]
- Ki (ERβ): 18.6 nM

Structure (SMILES): CN(CCCc1ccc(Cl)cc1)c1nc(NCCc2ccc(O)cc2)nc(N2CCN(/C(=C/C(=O)c3ccccc3)C(F)(F)F)CC2)n1 [Example 8, (2E)-3-[4-(4-[[3-(4-chlorophenyl)propyl](methyl)amino]-6-{[2-(4-hydroxyphenyl)ethyl]amino}-1,3,5-triazin-2-yl)-1-piperazinyl]-4,4,4-trifluoro-1-phenyl-2-buten-1-one]
- Ki (ERα; [1]): 1580 nM
- Ki (ERβ): 83.2 nM

Structure (SMILES): CN(C)C(=O)CCN1CCN(c2nc(NCCc3ccc(O)cc3)nc(N(C)CCCc3ccc(Cl)cc3)n2)CC1 [Example 9, 3-[4-(4-[[3-(4-chlorophenyl)propyl](methyl)amino]-6-{[2-(4-hydroxyphenyl)ethyl]amino}-1,3,5-triazin-2-yl)-1-piperazinyl]-N,N-dimethylpropanamide]
- Ki (ERα; [1]): 355 nM
- Ki (ERβ): 20 nM

Structure (SMILES): CN1CCN(c2nc(NC3CCc4cc(O)ccc4C3)nc(SCCCc3ccccc3)n2)CC1 (stereo not shown) [Example 10, 6-({4-(4-methyl-1-piperazinyl)-6-[(3-phenylpropyl)sulfanyl]-1,3,5-triazin-2-yl}amino)-5,6,7,8-tetrahydro-2-naphthalenol]
- Ki (ERα; [1]): 398 nM
- Ki (ERβ): 63.1 nM

Structure (SMILES): C=CCN1CCN(c2nc(NCCc3ccc(O)cc3)nc(N(C)CCCc3ccc(Cl)cc3)n2)CC1 [Example 12, 4-[2-({4-(4-ally-1-piperazinyl)-6-[[3-(4-chlorophenyl)propy](methyl)amino]-1,3,5-triazin-2-yl}amino)ethyl]phenol]
- Ki (ERβ): 22.9 nM

Now from value to molecule:

- Ki (ERα; [1]): 141 nM
- Ki (ERβ): 10 nM
Structure (SMILES): CN(CCCc1ccc(Cl)cc1)c1nc(NCCc2ccc(O)cc2)nc(N2CCN(C/C=C/c3ccccc3)CC2)n1 [Example 13, 4-{2-[(4-[[3-(4-chlorophenyl)propyl](methyl)amino]-6-{4-[(2E)-3-phenyl-2-propenyl]-1-piperazinyl}-1,3,5-triazin-2-yl)amino]ethyl]phenol]

- Ki (ERα; [1]): 562 nM
- Ki (ERβ): 26.3 nM
Structure (SMILES): CN(CCCc1ccc(Cl)cc1)c1nc(N(C)CCc2ccc(O)cc2)nc(N2CCNCC2)n1 [Example 14, 4-{2-[[4-[[3-(4-chlorophenyl)propyl](methyl)amino]-6-(1-piperazinyl)-1,3,5-triazin-2-yl](methyl)amino]ethy}phenol]

- Ki (ERα; [1]): 380 nM
- Ki (ERβ): 13.2 nM
Structure (SMILES): CN1CCN(c2nc(N(C)CCCc3ccc(Cl)cc3)nc(N(C)CCc3ccc(O)cc3)n2)CC1 [Example 15, 4-(2-{[4-[[3-(4-chlorophenyl)propyl](methyl)amino]-6-(4-methyl-1-piperazinyl)-1,3,5-triazin-2-yl](methyl)amino}ethyl)phenol]

- Ki (ERα; [1]): 229 nM
- Ki (ERβ): 11 nM
Structure (SMILES): C[C@@H]1CN(c2nc(N(C)CCCc3ccc(Cl)cc3)nc(N(C)CCc3ccc(O)cc3)n2)C[C@H](C)N1 [Example 16, 4-(2-{[4-[[3-(4-chlorophenyl)propyl](methyl)amino]-6-(3,5-cis-dimethyl-1-piperazinyl)-1,3,5-triazin-2-yl](methyl)amino}ethyl)phenol]

- Ki (ERα; [1]): 603 nM
- Ki (ERβ): 28.8 nM
Structure (SMILES): CN(CCCc1ccc(Cl)cc1)c1nc(N(C)CCc2ccc(O)cc2)nc(N2CCN(CCO)CC2)n1 [Example 17]

- Ki (ERα; [1]): 372 nM
- Ki (ERβ): 15.8 nM
Structure (SMILES): CN(CCCc1ccc(F)cc1)c1nc(NCCc2ccc(O)cc2)nc(N2CCNCC2)n1 [Example 18, 4-(2-{[4-[[3-(4-fluorophenyl)propyl](methyl)amino]-6-(1-piperazinyl)-1,3,5-triazin-2-yl]amino}ethyl)phenol]

- Ki (ERα; [1]): 550 nM
- Ki (ERβ): 24.5 nM
Structure (SMILES): CN(CCCc1ccc(F)cc1)c1nc(N(C)CCc2ccc(O)cc2)nc(N2CCNCC2)n1 [Example 19, 4-(2-{[4-[[3-(4-fluorophenyl)propyl](methyl)amino]-6-(1-piperazinyl)-1,3,5-triazin-2-yl]methylamino}ethyl)phenol]

- Ki (ERα; [1]): 562 nM
- Ki (ERβ): 23.4 nM
Structure (SMILES): CN1CCN(c2nc(N(C)CCCc3ccc(F)cc3)nc(N(C)CCc3ccc(O)cc3)n2)CC1 [Example 20, 4-(2-{[4-[[3-(4-fluorophenyl)propyl](methyl)amino]-6-(4-methyl-1-piperazinyl)-1,3,5-triazin-2-yl]methylamino}ethyl)phenol]

- Ki (ERα; [1]): 214 nM
- Ki (ERβ): 23.4 nM
Structure (SMILES): CN(CCCc1ccc(F)c(F)c1)c1nc(N(C)CCc2ccc(O)cc2)nc(N2CCNCC2)n1 [Example 21, 4-(2-{[4-[[3-(3,4-difluorophenyl)propyl](methyl)amino]-6-(1-piperazinyl)-1,3,5-triazin-2-yl]methylamino}ethyl)phenol]

- Ki (ERα; [1]): 550 nM
- Ki (ERβ): 85.1 nM
Structure (SMILES): CN(CCCc1ccc(C(F)(F)F)cc1)c1nc(N(C)CCc2ccc(O)cc2)nc(N2CCNCC2)n1 [Example 22, 4-(2-{methyl[4-(methyl{3-[4-(trifluoromethyl)phenyl]propyl}amino)-6-(1-piperazinyl)-1,3,5-triazin-2-yl]amino}ethyl)phenol]

- Ki (ERα; [1]): 501 nM
- Ki (ERβ): 33.1 nM
Structure (SMILES): CN(CCCc1ccc(Cl)cc1Cl)c1nc(N(C)CCc2ccc(O)cc2)nc(N2CCNCC2)n1 [Example 23, 4-(2-{[4-[[3-(2,4-dichlorophenyl)propyl](methyl)amino]-6-(1-piperazinyl)-1,3,5-triazin-2-yl]methylamino}ethyl)phenol]

- Ki (ERα): 339 nM
- Ki (ERβ): 14.8 nM
Structure (SMILES): CN(CCCc1ccc(Cl)cc1)c1nc(NCCc2ccc(O)cc2)nc(N2CCN(CCO)CC2)n1 [Example 24, 4-[2-({4-[[3-(4-chlorophenyl)propyl](methyl)amino]-6-[4-(2-hydroxyethyl)-1-piperazinyl]-1,3,5-triazin-2-yl}amino)ethyl]phenol]
